Source: patent US20060100263A1, “Antipyretic compositions and methods” (priority 2004, published 2006)
Where a name gives a salt, the structure may show the parent alone. Marks after values point to notes of the source that are not given here.

Key:
α1 adrenergic receptor = experiment: [3H]prazosin binding, rat cerebral cortex preparation
Experimental: At the end of 60 min, the assay was terminated by vacuum filtration and the amount of radioactivity deposited on the filter measured by scintillation counting.

[1] = biological target: T1, recombinant human cyclooxygenase2 (COX2) (Homo sapiens, UniProt P35354); experiment: COX2 PGE2 synthesis assay; details: 0.1, 1, or 10 μM
T1 sequence (P35354 18-604): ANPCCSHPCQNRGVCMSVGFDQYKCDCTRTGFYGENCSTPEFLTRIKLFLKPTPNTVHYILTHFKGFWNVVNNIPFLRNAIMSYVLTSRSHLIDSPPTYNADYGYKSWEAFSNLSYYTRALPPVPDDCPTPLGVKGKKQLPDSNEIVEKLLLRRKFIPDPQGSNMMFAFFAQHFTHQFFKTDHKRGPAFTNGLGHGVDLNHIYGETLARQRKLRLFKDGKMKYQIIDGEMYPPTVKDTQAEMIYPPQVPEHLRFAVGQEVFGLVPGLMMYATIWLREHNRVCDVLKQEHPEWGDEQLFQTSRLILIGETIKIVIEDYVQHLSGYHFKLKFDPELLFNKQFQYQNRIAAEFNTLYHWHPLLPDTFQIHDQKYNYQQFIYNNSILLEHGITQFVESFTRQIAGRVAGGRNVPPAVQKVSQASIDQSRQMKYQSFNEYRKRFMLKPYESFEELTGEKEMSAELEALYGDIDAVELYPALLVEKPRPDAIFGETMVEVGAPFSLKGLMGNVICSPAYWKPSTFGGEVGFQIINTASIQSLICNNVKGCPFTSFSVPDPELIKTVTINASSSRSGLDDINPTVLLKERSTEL
Experimental: This was determined in assays using the rate limiting enzyme for prostaglandin synthesis, recombinant human cyclooxygenasel (COX1) and cyclooxygenase2 (COX2) expressed in Sf9 cells using a modified technique of Glaser et al (1995). These cells were incubated with arachidonic acid as the substrate (4, and 2 μM, respectively) and 0.1, 1, or 10 μM concentrations of bicifadine HCl in a suitable assay buffer. The assay mixture was incubated (10 min at 25° C. for COX1, 5 min-at 22° C. for COX2), then stopped and the amount of reaction product (PGE2) formed was measured by an enzyme-linked immunosorbent assay.

α2 adrenergic receptor = α2 adrenergic receptor binding
[2] = oral temperature of normal human subjects; assay type: in vivo; details: 600 mg PO single dose; for Oral Temperature at Indicated Times of Treatment: normal humans
Experimental: Normal humans received either a placebo or 600 mg of bicifadine HCl (PO). Oral temperature readings were taken as part of an assessment of vital signs before and after administration of a single dose.
Oral temperature readings were taken as part of an assessment of vital signs before and after administration of a single dose of bicifadine to normal humans. The placebo group consisted of 150 subjects, while the bicifadine HCl group consisted of 151 individuals.

[3] = biological target: recombinant human cyclooxygenase1 (COX1) (Homo sapiens, UniProt P23219); experiment: COX1 PGE2 synthesis assay; details: 0.1, 1, or 10 μM
Experimental: The assay mixture was incubated (10 min at 25° C. for COX1, 5 min-at 22° C. for COX2), then stopped and the amount of reaction product (PGE2) formed was measured by an enzyme-linked immunosorbent assay.

[4] = blood pressure in human subjects; assay type: in vivo
[5] = yeast-induced pyresis model in rats; assay type: in vivo, rat
Experimental: (§1) Groups of 6 rats were injected subcutaneously with saline solution or 40% brewers' yeast 18 hours prior to oral administration of bicifadine HCl or aspirin. The yeast was suspended in 0.85% saline and doses in a volume of 10 ml/kg. Rectal temperatures were recorded with a YSI 43TA telethermometer just prior to oral drug administration, and hourly for 3-4 hours. The post-treatment temperatures were compared to the initial temperatures of each group. Control animals were treated with vehicle and tested concurrently. In FIG. 1, the solid line represents the mean rectal temperature of normal rats (99.5° F.) and the standard error of that measure (0.1° F.) is indicated by the dashed lines.
(§2) The results shown in FIG. 1 indicate that rats treated with brewers' yeast 18 hours prior to drug administration develop a febrile response, manifested as a mean rectal temperature of 101.1° F. In contrast, normal rats treated only with vehicle have a rectal temperature of 99.5° F., 1.6° F. lower than the yeast-treated rats.

[6] = average body temperature of normal rats; assay type: in vivo, rat; details: for Mean Rectal Temperature at Indicated Hours Post-Treatment: 100 mg/kg PO
Experimental: as §1, §2

[7] = biological target: 5-HT2A serotonin receptor (Homo sapiens, UniProt P28223); experiment: radioligand binding to 5-HT2A serotonin receptor
Chain of 5-HT2A serotonin receptor (P28223 whole entry): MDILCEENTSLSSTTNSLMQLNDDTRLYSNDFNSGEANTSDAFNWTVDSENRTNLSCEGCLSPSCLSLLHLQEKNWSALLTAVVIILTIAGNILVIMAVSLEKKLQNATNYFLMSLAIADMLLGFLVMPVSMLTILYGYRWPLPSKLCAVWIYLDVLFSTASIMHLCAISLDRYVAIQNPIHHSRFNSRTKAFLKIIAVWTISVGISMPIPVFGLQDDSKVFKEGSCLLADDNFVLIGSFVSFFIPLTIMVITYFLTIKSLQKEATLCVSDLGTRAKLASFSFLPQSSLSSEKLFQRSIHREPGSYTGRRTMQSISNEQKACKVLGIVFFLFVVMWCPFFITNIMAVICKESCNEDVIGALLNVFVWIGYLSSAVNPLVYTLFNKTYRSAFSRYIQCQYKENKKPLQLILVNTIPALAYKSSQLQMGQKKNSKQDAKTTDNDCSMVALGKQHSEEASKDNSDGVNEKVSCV

Chain of recombinant human cyclooxygenase1 (COX1) (P23219 24-599): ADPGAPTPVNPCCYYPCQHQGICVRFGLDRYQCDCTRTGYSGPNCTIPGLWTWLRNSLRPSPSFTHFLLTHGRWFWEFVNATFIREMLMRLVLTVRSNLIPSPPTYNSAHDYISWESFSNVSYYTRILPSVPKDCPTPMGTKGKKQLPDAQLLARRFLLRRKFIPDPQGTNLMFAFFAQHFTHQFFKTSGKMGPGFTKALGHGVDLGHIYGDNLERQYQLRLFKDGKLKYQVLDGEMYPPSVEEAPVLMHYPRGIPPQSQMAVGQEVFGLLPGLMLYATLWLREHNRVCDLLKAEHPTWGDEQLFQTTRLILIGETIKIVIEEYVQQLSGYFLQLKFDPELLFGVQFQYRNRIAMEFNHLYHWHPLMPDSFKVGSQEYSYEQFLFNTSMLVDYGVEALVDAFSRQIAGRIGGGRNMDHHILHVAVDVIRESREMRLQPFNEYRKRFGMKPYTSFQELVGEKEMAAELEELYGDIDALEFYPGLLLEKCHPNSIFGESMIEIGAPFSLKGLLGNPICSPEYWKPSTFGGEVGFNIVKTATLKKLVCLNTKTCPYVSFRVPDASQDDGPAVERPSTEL

With `Cc1ccc([C@]23CNC[C@H]2C3)cc1` (racemic) [Bicifadine HCl, (±)-1-(4-methylphenyl)-3-azabicyclo[3.1.0]hexane hydrochloride] the “occupying binding sites on α1 adrenergic receptor” value (α1 adrenergic receptor) was “capable of occupying binding sites”, the Ki (α1 adrenergic receptor; 0.25 nM [3H]prazosin, 60 min at 22° C.) was 1000 nM and the “inhibitory effect on PGE2 synthesis by COX2” value [1] was “no significant inhibitory effect”. The “occupying binding sites on α2 adrenergic receptor” value (α2 adrenergic receptor) was “capable of occupying binding sites”, the “effect on normal human oral temperature (hypothermia)” value [2] was “did not consistently lower normal human oral temperature” and the “Oral Temperature at Indicated Times of Treatment” value (from here on “Oral Temperature … of Treatment”) ([2]; 0.5 hr) was 98.1 ° F. The “Oral Temperature … of Treatment” value ([2]; 1 hr) was 98.1 ° F, the “Oral Temperature … of Treatment” value ([2]; 2 hr) was 98.1 ° F and the “Oral Temperature … of Treatment” value ([2]; 3 hr) was 98.0 ° F. For the same compound, the “Oral Temperature … of Treatment” value ([2]; 4 hr) was 98.1 ° F, the “Oral Temperature … of Treatment” value ([2]; 5 hr) was 98.2 ° F and the “Oral Temperature … of Treatment” value ([2]; 6 hr) was 98.2 ° F. For the same compound, the “Oral Temperature … of Treatment” value ([2]; Follow-up) was 97.8 ° F, the “Oral Temperature … of Treatment” value ([2]; Pre-Dose) was 98.1 ° F and the “inhibitory effect on PGE2 synthesis by COX1” value [3] was “no significant inhibitory effect”. The “alterations in blood pressure” value [4] was “did not cause significant alterations in blood pressure”, the “rectal temperature of yeast-fevered rats” value ([5]; 50 mg/kg PO, by the first hour after administration, vs pre-treatment temperature) was “significantly reduced rectal temperature” and the “duration of antipyretic effect” value ([5]; 100 mg/kg PO) was 4 h. For the same compound, the “rectal temperature of yeast-fevered rats” value ([5]; 100 mg/kg PO, normal rat temperature 99.5 °F) was “decrease rectal temperature to levels at or below normal”, the “antipyretic potency compared with aspirin” value ([5]; aspirin 200 mg/kg PO) was “more potent antipyretic than aspirin” and the “effect on rectal temperature of normal rats (hypothermia)” value [6] was “did not consistently lower the rectal temperature of normal rats”. The “Mean Rectal Temperature at Indicated Hours Post-Treatment” value (from here on “Mean Rectal Temperature”) ([6]; 0 h) was 98.9 ° F, the “Mean Rectal Temperature” value ([6]; 1 h) was 97.9* ° F and the “Mean Rectal Temperature” value ([6]; 2 h) was 98.3 ° F. For the same compound, the “Mean Rectal Temperature” value ([6]; 3 h) was 98.2 ° F, the “Mean Rectal Temperature” value ([6]; 4 h) was 97.5 ° F and the “inhibition of radioligand binding to 5-HT2A serotonin receptor” value [7] was “significantly inhibited radioligand binding”.
